Reference: publication PMC4188605, “Biochemical and Pharmacological Characterization of the Human Lymphocyte Antigen B-Associated Transcript 5 (BAT5/ABHD16A)” (PLoS ONE, 2014)
“Also recorded” adds a separate entry of the source.

Legend:
hMAGL = molecular target: T1, hMAGL (Homo sapiens, UniProt Q99685); test: Hydrolase activity assay, hMAGL-HEK lysates; type: biochemical; settings: hMAGL-HEK lysates
T1 construct: expressed in transfected cells; host or cells: HEK
T1 sequence (Q99685 1-303): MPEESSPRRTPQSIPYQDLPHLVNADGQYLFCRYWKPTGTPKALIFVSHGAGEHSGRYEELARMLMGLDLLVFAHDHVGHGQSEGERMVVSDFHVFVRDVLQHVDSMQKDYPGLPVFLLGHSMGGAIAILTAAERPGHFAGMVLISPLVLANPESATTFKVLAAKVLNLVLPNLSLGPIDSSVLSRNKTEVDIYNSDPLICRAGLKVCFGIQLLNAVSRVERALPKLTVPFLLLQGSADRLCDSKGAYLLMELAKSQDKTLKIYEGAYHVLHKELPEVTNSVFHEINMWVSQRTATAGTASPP

ABHD6 = molecular target: T2, ABHD6 (Mus musculus, UniProt Q8R2Y0); test: Competitive ABPP, mouse brain membrane proteome: ABHD6 band; settings: at the highest concentration (10^−5 M)
T2 sequence (Q8R2Y0 1-336): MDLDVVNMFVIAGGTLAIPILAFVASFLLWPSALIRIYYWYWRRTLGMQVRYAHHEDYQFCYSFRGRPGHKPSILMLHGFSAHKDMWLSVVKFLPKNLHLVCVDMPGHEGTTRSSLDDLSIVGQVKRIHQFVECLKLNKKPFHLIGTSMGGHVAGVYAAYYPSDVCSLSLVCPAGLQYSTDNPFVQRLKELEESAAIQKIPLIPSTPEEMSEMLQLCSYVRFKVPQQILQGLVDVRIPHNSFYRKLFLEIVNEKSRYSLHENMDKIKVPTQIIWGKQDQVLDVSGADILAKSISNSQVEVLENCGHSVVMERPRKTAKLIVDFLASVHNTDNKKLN

MAGL = molecular target: T3, MAGL (Mus musculus, UniProt O35678); test: Competitive ABPP, mouse brain membrane proteome: MAGL doublet; settings: at the highest concentration (10^−5 M)
T3 sequence (O35678 1-303): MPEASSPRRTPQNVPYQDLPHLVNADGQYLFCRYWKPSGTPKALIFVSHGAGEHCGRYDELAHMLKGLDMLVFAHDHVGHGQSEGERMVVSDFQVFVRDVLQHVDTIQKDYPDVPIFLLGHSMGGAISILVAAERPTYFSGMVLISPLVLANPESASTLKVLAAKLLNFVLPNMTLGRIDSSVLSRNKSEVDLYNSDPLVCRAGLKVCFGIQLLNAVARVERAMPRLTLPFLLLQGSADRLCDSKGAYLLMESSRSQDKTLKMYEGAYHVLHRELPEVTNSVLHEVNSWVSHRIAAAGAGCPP

LYPLA1/2 = test: Competitive ABPP, mouse brain membrane proteome: LYPLA1/2 band; settings: tested concentration range 10^−8–10^−5 M

IC50 (hMAGL): 93.3 nM
SMILES: CCCCCCCCCC[C@@H]1C(=O)O[C@H]1CCc1ccc(OC)c(OC)c1 [Palmostatin B, palmostatin B]
inhibition of probe binding to ABHD6 (ABHD6): inhibited probe binding; also recorded: also inhibited
inhibition of probe binding to MAGL (MAGL): inhibited probe binding; also recorded: also inhibited
inhibition of probe binding to LYPLA1/2 (LYPLA1/2): dose-dependently inhibited probe binding; also recorded: dose-dependently inhibits probe labeling
